Article PMC4965148 (PLoS ONE, 2016)
Several values for one entry are separate records, joined by “and”; a condition that tells them apart may be missing. Equal entries are not always repeated. Where two headings read alike, the source gives them in different places.

Columns and labels:
HEK293/Human 5-HT3A = target: T1, HEK293/Human 5-HT3A (Homo sapiens, UniProt P46098); experiment: Ca2+ flux (FLIPR) 5-HT3A antagonist assay; assay type: cell-based
T1 construct: expressed in transfected cells; host or cells: HEK293 (made by Bristol-Myers Squibb)
T1 sequence (P46098 24-478): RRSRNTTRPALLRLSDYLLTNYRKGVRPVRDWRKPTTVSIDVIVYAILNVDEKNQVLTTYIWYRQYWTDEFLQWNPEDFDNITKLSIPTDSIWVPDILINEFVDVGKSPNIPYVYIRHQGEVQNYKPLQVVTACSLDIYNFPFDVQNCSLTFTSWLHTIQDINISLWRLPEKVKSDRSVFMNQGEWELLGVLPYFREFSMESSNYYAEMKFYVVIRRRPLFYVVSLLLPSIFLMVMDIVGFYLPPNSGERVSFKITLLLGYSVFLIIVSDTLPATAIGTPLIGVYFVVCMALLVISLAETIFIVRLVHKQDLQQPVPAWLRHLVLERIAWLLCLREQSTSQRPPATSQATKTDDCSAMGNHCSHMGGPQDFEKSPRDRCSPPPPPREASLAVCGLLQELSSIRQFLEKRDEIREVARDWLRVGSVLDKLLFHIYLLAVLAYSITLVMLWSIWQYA
Method: Functional activity was examined using Ca^2+-sensitive, dye-based, microfluorometric assays read on the FLIPR Tetra plate reader platform (Molecular Devices, CA, USA). Cells were plated in 384-well black, clear-bottomed Greiner poly-D-lysine coated plates at a density of ~25 K cells/well and incubated at 29°C for 48 h. Prior to assay, media contents were removed and cells incubated in assay buffer containing 5μM final Fluo-4 dye for 90 min. For nAChR assays, the dye-loading buffer was HBSS (#14175 Life Technologies) supplemented with 20 mM HEPES, 0.5 mM CaCl2, 1 mM MgCl2 and 10 μM atropine (final concentration). Test compounds were solubilized in DMSO and serially diluted in NUNC 384-well plates prior to addition of assay buffer (5.3 mM KCl + 140 mM NaCl + 20 mM Hepes + 25 mM CaCl2 + 1 mM MgCl2 + 10 μM atropine final concentration). Compounds diluted in assay buffer were added to the assay plate by the FLIPR and read for approximately 2 min. […] For 5-HT3A antagonist studies, the dye loading and compound diluent buffer was HBSS (#14025 Life Technologies) supplemented with 20 mM HEPES (final concentration) and the concentration of 5-HT used in the assay was 2 μM. Offline transformation of concentration response data was done using a 4 parameter logistic fit using a Bristol-Myers Squibb proprietary informatics software suite.

Opiate Mu = Opiate Mu (Homo sapiens, UniProt P35372); experiment: Selectivity panel, binding
Progesterone receptor = Progesterone receptor (Homo sapiens, UniProt P06401); experiment: Selectivity panel, binding
CB1 = CB1 (Homo sapiens, UniProt P21554); experiment: Selectivity panel, binding; settings: read-out: % inhibition @ 10 µM
HEK293/Human α7 nAChR = HEK293/Human α7 nAChR (Homo sapiens, UniProt P36544); experiment: [3H]-A-585539 filtration binding; parameters: expressed in transfected cells
Muscarinic M5 = Muscarinic M5 (Homo sapiens, UniProt P08912); experiment: Selectivity panel, binding; settings: read-out: % inhibition @ 10 µM
Dopamine D1 = Dopamine D1 (Homo sapiens, UniProt P21728); experiment: Selectivity panel, binding
5-HT1A = 5-HT1A (Homo sapiens, UniProt P08908); experiment: Selectivity panel, binding; settings: read-out: % inhibition @ 10 µM
Rat Brain α7 nAChR = Rat Brain α7 nAChR (Rattus norvegicus, UniProt Q05941); experiment: [3H]-A-585539 filtration binding
Nav1.5 = Nav1.5 (Homo sapiens, UniProt Q14524); experiment: Selectivity panel, functional; assay type: cell-based
Dopamine D2 = Dopamine D2 (Homo sapiens, UniProt P14416); experiment: Selectivity panel, binding
Muscarinic M4 = Muscarinic M4 (Homo sapiens, UniProt P08173); experiment: Selectivity panel, binding; settings: read-out: % inhibition @ 10 µM
Dopamine transporter = Dopamine transporter (Homo sapiens, UniProt Q01959); experiment: Selectivity panel, binding
Adenosine A2a = Adenosine A2a (Homo sapiens, UniProt P29274); experiment: Selectivity panel, binding
Glucocorticoid receptor = Glucocorticoid receptor (Homo sapiens, UniProt P04150); experiment: Selectivity panel, binding
Adrenergic α2C = Adrenergic α2C (Homo sapiens, UniProt P18825); experiment: Selectivity panel, binding
Histamine H2 = Histamine H2 (Homo sapiens, UniProt P25021); experiment: Selectivity panel, binding
Adrenergic α2A = Adrenergic α2A (Homo sapiens, UniProt P08913); experiment: Selectivity panel, binding
5-HT1B = experiment: Selectivity panel, binding; settings: read-out: % inhibition @ 10 µM, Rat

Sequence of HEK293/Human α7 nAChR (P36544 23-502): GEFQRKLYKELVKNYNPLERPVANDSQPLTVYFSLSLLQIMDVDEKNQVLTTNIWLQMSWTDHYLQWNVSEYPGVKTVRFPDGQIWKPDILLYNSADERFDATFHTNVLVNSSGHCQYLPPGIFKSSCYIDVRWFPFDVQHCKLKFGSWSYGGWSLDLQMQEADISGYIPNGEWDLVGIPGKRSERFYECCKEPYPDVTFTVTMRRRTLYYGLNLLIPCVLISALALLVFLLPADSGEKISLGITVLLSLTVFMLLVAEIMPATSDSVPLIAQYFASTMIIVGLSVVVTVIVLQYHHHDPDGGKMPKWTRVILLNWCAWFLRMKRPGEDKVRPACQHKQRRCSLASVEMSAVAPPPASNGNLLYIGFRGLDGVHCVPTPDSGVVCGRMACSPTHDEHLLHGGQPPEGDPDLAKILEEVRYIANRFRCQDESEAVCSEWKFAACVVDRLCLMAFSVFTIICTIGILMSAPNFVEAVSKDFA
Sequence of Rat Brain α7 nAChR (Q05941 23-502): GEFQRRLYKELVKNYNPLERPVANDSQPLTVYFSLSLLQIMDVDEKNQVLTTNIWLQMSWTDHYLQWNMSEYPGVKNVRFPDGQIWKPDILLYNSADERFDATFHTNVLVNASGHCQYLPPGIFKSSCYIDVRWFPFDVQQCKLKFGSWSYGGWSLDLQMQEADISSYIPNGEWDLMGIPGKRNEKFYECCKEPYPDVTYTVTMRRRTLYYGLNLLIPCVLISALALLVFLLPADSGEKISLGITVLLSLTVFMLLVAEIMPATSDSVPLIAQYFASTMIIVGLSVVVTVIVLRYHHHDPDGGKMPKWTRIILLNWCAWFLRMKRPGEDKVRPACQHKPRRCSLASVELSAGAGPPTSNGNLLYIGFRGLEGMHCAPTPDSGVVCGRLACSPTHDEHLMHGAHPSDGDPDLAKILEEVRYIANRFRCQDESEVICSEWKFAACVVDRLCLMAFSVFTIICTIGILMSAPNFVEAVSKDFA
Sequence of 5-HT1A (P08908 whole entry): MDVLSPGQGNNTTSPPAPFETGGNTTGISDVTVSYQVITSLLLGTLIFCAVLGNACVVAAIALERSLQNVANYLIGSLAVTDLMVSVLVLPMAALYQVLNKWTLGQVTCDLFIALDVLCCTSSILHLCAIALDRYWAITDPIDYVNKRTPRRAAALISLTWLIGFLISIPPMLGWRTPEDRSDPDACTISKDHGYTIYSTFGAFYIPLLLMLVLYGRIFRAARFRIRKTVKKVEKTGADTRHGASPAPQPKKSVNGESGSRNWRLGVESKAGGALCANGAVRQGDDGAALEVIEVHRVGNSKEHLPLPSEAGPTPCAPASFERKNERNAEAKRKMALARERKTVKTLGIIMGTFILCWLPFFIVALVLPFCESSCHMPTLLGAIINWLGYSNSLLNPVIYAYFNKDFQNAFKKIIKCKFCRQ
Sequence of Opiate Mu (P35372 whole entry): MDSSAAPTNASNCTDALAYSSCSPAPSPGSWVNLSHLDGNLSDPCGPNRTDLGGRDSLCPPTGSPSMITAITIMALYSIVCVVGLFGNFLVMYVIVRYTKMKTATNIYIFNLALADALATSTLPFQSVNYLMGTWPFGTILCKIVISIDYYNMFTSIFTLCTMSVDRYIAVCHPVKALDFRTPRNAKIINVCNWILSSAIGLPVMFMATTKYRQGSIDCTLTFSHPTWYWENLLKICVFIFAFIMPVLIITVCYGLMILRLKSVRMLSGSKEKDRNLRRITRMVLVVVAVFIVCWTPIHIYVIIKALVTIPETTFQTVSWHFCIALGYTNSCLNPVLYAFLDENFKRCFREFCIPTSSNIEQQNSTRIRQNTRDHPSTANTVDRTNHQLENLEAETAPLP
Sequence of Muscarinic M4 (P08173 whole entry): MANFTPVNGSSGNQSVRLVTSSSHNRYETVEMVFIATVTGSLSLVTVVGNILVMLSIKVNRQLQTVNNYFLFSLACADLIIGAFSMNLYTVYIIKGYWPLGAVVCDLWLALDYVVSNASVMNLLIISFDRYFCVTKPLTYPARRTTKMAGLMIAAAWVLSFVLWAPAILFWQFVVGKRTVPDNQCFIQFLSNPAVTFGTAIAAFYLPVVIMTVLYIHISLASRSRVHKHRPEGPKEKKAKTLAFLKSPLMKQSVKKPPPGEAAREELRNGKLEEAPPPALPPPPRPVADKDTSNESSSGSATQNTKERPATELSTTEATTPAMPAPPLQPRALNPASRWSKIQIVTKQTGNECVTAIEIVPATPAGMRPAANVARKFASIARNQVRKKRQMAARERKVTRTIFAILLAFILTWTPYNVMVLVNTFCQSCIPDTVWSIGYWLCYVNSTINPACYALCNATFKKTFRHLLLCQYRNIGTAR
Sequence of Dopamine transporter (Q01959 whole entry): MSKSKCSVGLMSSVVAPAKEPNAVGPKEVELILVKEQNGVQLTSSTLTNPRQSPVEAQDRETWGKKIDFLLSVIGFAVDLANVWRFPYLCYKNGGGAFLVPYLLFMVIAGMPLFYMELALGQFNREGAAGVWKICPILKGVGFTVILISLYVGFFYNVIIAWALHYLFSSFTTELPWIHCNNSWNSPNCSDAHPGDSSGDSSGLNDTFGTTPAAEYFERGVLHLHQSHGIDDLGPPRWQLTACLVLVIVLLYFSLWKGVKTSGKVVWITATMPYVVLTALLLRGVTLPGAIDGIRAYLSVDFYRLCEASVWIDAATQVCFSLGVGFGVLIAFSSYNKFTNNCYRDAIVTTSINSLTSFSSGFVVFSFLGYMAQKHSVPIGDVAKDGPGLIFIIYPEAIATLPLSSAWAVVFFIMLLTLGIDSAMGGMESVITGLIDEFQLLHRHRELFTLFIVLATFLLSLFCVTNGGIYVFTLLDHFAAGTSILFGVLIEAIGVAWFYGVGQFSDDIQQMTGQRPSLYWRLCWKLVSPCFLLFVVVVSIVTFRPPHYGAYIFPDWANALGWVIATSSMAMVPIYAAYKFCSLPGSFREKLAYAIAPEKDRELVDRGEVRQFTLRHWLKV
Sequence of Progesterone receptor (P06401 whole entry): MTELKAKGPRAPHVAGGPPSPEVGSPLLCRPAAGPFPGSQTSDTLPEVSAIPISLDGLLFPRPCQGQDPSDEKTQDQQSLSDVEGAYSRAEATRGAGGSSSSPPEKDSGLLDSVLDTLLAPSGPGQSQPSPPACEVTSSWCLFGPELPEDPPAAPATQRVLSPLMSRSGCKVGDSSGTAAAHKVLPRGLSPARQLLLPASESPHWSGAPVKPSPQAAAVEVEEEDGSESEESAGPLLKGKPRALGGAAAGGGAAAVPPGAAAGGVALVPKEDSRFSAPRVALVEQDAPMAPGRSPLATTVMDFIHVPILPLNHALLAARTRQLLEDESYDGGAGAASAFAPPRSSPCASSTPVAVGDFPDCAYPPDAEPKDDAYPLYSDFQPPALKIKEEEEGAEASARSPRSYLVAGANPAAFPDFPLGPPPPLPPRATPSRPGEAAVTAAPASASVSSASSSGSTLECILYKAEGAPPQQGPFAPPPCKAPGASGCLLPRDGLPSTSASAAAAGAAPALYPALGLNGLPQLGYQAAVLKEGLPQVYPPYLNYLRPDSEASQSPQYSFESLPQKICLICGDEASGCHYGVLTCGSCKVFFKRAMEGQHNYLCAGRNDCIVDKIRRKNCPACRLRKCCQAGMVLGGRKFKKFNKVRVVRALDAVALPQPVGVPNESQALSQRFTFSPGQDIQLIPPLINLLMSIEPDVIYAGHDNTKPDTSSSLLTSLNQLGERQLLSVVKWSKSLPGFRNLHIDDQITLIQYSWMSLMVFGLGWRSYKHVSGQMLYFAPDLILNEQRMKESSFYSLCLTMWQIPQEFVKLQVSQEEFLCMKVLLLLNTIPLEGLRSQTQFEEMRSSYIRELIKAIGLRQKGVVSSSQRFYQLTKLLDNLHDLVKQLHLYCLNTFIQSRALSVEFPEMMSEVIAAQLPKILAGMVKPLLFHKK
Sequence of Adenosine A2a (P29274 whole entry): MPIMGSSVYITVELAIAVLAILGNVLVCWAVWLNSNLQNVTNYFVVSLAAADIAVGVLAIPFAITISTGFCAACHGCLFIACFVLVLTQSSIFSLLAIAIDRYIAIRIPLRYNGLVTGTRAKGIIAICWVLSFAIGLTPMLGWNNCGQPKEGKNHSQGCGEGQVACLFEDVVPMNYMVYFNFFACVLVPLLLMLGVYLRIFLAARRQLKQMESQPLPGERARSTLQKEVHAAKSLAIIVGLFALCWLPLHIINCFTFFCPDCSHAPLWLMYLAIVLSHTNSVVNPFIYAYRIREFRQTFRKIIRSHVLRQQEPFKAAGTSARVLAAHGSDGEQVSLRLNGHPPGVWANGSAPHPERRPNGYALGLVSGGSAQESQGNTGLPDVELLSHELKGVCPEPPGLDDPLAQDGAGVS
Sequence of Adrenergic α2A (P08913 whole entry): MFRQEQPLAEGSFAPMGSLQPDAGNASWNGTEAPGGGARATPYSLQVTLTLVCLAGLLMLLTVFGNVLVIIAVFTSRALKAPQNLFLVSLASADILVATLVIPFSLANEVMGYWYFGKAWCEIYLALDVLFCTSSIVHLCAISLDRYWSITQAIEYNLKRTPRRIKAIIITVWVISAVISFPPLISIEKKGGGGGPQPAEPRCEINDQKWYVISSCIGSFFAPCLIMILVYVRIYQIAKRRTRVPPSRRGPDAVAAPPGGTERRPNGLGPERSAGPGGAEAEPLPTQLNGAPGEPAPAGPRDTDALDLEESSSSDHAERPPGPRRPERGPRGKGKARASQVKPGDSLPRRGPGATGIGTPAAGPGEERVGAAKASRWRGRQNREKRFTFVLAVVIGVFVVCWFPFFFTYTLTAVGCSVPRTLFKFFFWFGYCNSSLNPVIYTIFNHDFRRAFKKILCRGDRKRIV

c1cn(-c2cc(NC3=NC[C@@]4(CN5CCC4CC5)O3)ncn2)cn1 [BMS-933043, (2R)-N-(6-(1H-imidazol-1-yl)-4-pyrimidinyl)-4'H-spiro[4-azabicyclo[2.2.2]octane-2,5'-[1,3]oxazol]-2'-amine]
IC50 (HEK293/Human 5-HT3A; HEK293/Human 5-HT3A Mean ± SD IC50, Ca2+ flux (FLIPR), antagonism of 2 μM 5-HT): 8.07 µM | IC50 (HEK293/Human 5-HT3A; Human 5-HT3A IC50 values (individual), FLIPR, individual determinations): 10.5 µM and 7.2 µM and 8.02 µM and 6.88 µM and 7.28 µM and 4.89 µM and 12.4 µM and 5.32 µM and 8.67 µM and 9.42 µM | IC50 (Opiate Mu): > 30 µM | IC50 (Progesterone receptor): > 150 µM | inhibition at 10 µM (CB1): -5% | Ki (HEK293/Human α7 nAChR; HEK293/Human α7 nAChR Mean ± SD Ki): 0.008 µM | Ki (HEK293/Human α7 nAChR; HEK293/human α7 nAChR Ki (individual)): 0.0105 µM and 0.0057 µM | Ki (HEK293/Human α7 nAChR; read-out: HEK293/Human α7 nAChR Mean ± SD Ki): 0.0081 µM | Ki (HEK293/Human α7 nAChR; read-out: HEK293/human α7 nAChR Ki (individual)): 0.0081 µM | inhibition at 10 µM (Muscarinic M5): 8% | IC50 (Dopamine D1): > 30 µM | inhibition at 10 µM (5-HT1A): 9% | Ki (Rat Brain α7 nAChR; Rat Brain α7 nAChR Ki (individual)): 0.00267 µM and 0.00299 µM and 0.00308 µM and 0.00374 µM and 0.0032 µM and 0.00382 µM | Ki (Rat Brain α7 nAChR; Rat Brain α7 nAChR Mean ± SD Ki): 0.003 µM | Ki (Rat Brain α7 nAChR; read-out: Rat Brain α7 nAChR Mean ± SD Ki): 0.0033 µM | IC50 (Nav1.5): > 30 µM | IC50 (Dopamine D2): > 30 µM | inhibition at 10 µM (Muscarinic M4): 10% | IC50 (Dopamine transporter): > 30 µM | IC50 (Adenosine A2a): > 30 µM | IC50 (Glucocorticoid receptor): > 150 µM | IC50 (Adrenergic α2C): > 30 µM | IC50 (Histamine H2): > 30 µM | IC50 (Adrenergic α2A): > 30 µM | inhibition at 10 µM (5-HT1B): 0%
